Patent US12398111B2, “Triazine compounds and pharmaceutical use thereof” (Japan Tobacco Inc., priority 2014, dated 2025)

Biological target: T1, human mPGES-1 (Homo sapiens, UniProt O14684)
T1 construct: made in house; host or cells: FreeStyle CHO-S cells (Chinese hamster ovary), transient transfection with pcDNA3.1(+)/human mPGES-1; microsome fraction used
T1 sequence (O14684 1-152): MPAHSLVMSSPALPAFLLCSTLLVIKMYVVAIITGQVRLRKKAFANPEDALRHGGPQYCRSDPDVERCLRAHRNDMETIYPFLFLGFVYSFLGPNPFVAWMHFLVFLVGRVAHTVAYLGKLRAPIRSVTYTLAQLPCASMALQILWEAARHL
Assay: Evaluation of human mPGES-1 enzyme inhibitory activity (PGE2 measured by HTRF, microsome fraction of CHO-S cells expressing human mPGES-1)
Format: biochemical
Conditions: IC50 value; microsome fraction of CHO-S cells expressing human mPGES-1, PGE2 by HTRF
How it was run: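 Enzyme source: microsomes from CHO-S cells transfected with human mPGES-1 and cultured 48 hr, diluted to 5 μg/mL protein in reduced GSH (12.5 mmol/L KPB solution). Test articles were in 0.1 mol/L potassium phosphate pH 7.4, final DMSO 2% (v/v). PGE2 formed was quantified by HTRF.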

Compound	IC50
Oc1nc(-c2ccc(C(F)(F)F)cc2)nc(-c2c(O)cccc2Cl)n1 [Example 2-16]	0.412 µM
CCOc1cccc(Cl)c1-c1nc(O)nc(-c2ccc(C(F)(F)F)cc2)n1 [Example 2-17]	0.039 µM
CCCOc1cccc(Cl)c1-c1nc(O)nc(-c2ccc(C(F)(F)F)cc2)n1 [Example 2-20]	0.052 µM
OCCCOc1cccc(Cl)c1-c1nc(O)nc(-c2ccc(C(F)(F)F)cc2)n1 [Example 2-23]	0.155 µM
Cc1cccc(C)c1-c1nc(O)nc(-c2ccc(F)cc2)n1 [Example 2-24]	2.4 µM
Cc1cccc(C)c1-c1nc(O)nc(-c2ccc(Cl)cc2)n1 [Example 2-25]	0.249 µM
CCCCOc1cccc(Cl)c1-c1nc(O)nc(-c2ccc(C(F)(F)F)cc2)n1 [Example 2-31]	0.031 µM
Oc1nc(-c2ccc(C(F)(F)F)cc2)nc(-c2c(Cl)cccc2OCc2ccccc2)n1 [Example 2-32]	0.014 µM
CC(C)COc1cccc(Cl)c1-c1nc(O)nc(-c2ccc(C(F)(F)F)cc2)n1 [Example 2-33]	0.102 µM
COCCOc1cccc(Cl)c1-c1nc(O)nc(-c2ccc(C(F)(F)F)cc2)n1 [Example 2-34]	0.163 µM
COc1cccc(Cl)c1-c1nc(O)nc(-c2ccc(OCc3ccccc3)cc2)n1 [Example 2-35]	0.017 µM
Oc1nc(-c2ccc(C(F)(F)F)cc2)nc(-c2c(Cl)cccc2OCC(F)(F)F)n1 [Example 2-36]	0.053 µM
Cc1cccc(C)c1-c1nc(O)nc(-c2ccc(OCC3CCCCC3)cc2)n1 [Example 2-37]	0.041 µM
Cc1cccc(C)c1-c1nc(O)nc(-c2ccc(CC(C)C)cc2)n1 [Example 2-39]	0.45 µM
CCOc1ccc(-c2nc(O)nc(-c3c(C)cccc3C)n2)cc1 [Example 2-40]	1.3 µM
Cc1cccc(C)c1-c1nc(O)nc(-c2ccc(O[C@@H](C)c3ccccc3)cc2)n1 [Example 2-43]	0.57 µM
Cc1cccc(C)c1-c1nc(O)nc(-c2ccc(O[C@H](C)c3ccccc3)cc2)n1 [Example 2-44]	0.563 µM
Oc1nc(-c2ccc(C(F)(F)F)cc2)nc(-c2c(Cl)cccc2OCc2ccccn2)n1 [Example 2-45]	0.012 µM
Cc1cccc(C)c1-c1nc(O)nc(-c2ccc(OC3CCCCC3)cc2)n1 [Example 2-46]	0.494 µM
Cc1cccc(C)c1-c1nc(O)nc(-c2ccc(OC3CCC(C)(C)CC3)cc2)n1 [Example 2-47]	0.295 µM
Cc1cccc(C)c1-c1nc(O)nc(-c2ccc(Cl)c(OCc3ccccc3)c2)n1 [Example 2-48]	0.019 µM
CCc1ccccc1COc1cccc(Cl)c1-c1nc(O)nc(-c2ccc(C(F)(F)F)cc2)n1 [Example 2-49]	0.014 µM

The next lines start with the values.

IC50	Compound
7.7 µM	COc1ccc(-c2nc(O)nc(-c3c(C)cccc3C)n2)cc1 [Example 2-27]
3.7 µM	Cc1cccc(C)c1-c1nc(O)nc(-c2cccc(C(F)(F)F)c2)n1 [Example 2-28]
2.7 µM	Cc1ccc(-c2nc(O)nc(-c3c(C)cccc3C)n2)cc1 [Example 2-26]
1 µM	Cc1cccc(C)c1-c1nc(O)nc(-c2ccc(OC(C)C)cc2)n1 [Example 2-38]
0.503 µM	Cc1cccc(C)c1-c1nc(O)nc(-c2cccc(OCc3ccccc3)c2)n1 [Example 2-29]
0.429 µM	CCCOc1ccc(-c2nc(O)nc(-c3c(C)cccc3C)n2)cc1 [Example 2-41]
0.341 µM	CC(C)Oc1cccc(Cl)c1-c1nc(O)nc(-c2ccc(C(F)(F)F)cc2)n1 [Example 2-21]
0.239 µM	Cc1cccc(C)c1-c1nc(O)nc(-c2ccc(OCC(C)C)cc2)n1 [Example 2-42]
0.219 µM	OCCOc1cccc(Cl)c1-c1nc(O)nc(-c2ccc(C(F)(F)F)cc2)n1 [Example 2-22]
0.211 µM	Cc1cccc(Cl)c1-c1nc(O)nc(-c2ccc(C(F)(F)F)cc2)n1 [Example 2-19]
0.008 µM	Cc1cccc(C)c1-c1nc(O)nc(-c2ccc(C#CC3CCCCC3)cc2)n1 [Example 2-18]

Same assay, conditions: at 30 μM test article

inhibition at 30 µM	Compound
43%	Cc1cccc(C)c1-c1nc(O)nc(-c2cccc(O)c2)n1 [Example 2-30]
